Source: patent US20230000888A1, “NAD-PRECURSORS AND DIETARY RESTRICTION FOR TREATING AGE RELATED MEDICAL CONDITIONS” (Leibniz-Institut für Alternsforschung - …, priority 2019, published 2023)
“Also recorded” adds a separate entry of the source. Structures can show the parent of a compound that is named as a salt.

What was measured:
CMPs [1] = assay: Seahorse basal oxygen consumption rate after NR pre-treatment followed by 3I; assay type: cell-based, mice; settings: FIG. 12F
Protocol: (F) Basal oxygen consumption rate in CMPs from young (3-5 months, n=4) and old mice (22-24 months, n=4). Cells were either pretreated with 1 mM […] (NR) or DMSO (Con) for 12 h. This was followed by treatment for 12h in vitro to combination of 3 inhibitors of mitochondrial nutrient uptake (by BPTES=6 uM, Etomoxir=6 uM, UK5099=6 uM) or DMSO as control. The data were not normally distributed (Shapiro-Wilk test) and the Mann-Whitney test was used for the calculation of p-values.
(§1) To test the hypothesis that NAD(P) availability limits the potential of HSPCs from old mice to respond to changes in nutrient availability, freshly isolated HSCs from young and old mice were exposed to inhibitors of mitochondrial nutrient uptake.
For CMP and GMP 80,000 cells were used. For MPP 60,000 cells were used.

HSCs = assay: HSC culture with NR pre-treatment followed by 3I, number of CD48−Sca1+ cells; assay type: cell-based; settings: NR-treated (1 mM) HSCs from old mice; 3I 6 μM each; FIG. 12E
Description: The NR treatment was continued on das 3 and 4. […] N=3 HSC cultures derived from 3 individual mice per group. […] Error bars depict SD.
as §1
For testing the response of HSPCs to the blocking of glycolysis or mitochondrial ATP synthesis, 2-DG (Sigma, D8375) or oligomycin A (Sigma, 75351) were used. For the inhibition of nutrient uptake into mitochondria, three inhibitors (3I) were used. BPTES (Sigma, SML0601) blocks […] uptake, Etomoxir (Sigma E1905) blocks Fatty acids uptake, and UK5099 (Sigma PZ0160) blocks pyruvate uptake. The final concentration of each inhibitor in the culture medium is 6 μM. Same amount of DMSO was used in the medium as control. For determination of cell number after NR treatment 500 HSCs from young (2-3 months) and old (22-24 months) were pre-incubated either with 1 mM NR (provided by Prof. Johan Auwerx Lab) or DMSO as control for 2 days followed by 2 days treatment with the inhibitors (BPTES, Etomoxir and UK5099, 6 μM each) or same amount of DMSO as control. The cells were then analyzed by BD LSR fortessa.

old mice = settings: previous studies; cited from earlier work
[2] = system: 22-24 months old female mice; assay: Lifespan (Kaplan Meier survival) of old mice under long-term dietary treatments; assay type: in vivo
Protocol: (B) Kaplan Meier survival analysis in cohorts of mice that were exposed to DR-alone, NR-alone, or NR/DR co-treatment compared to AL-feeding. Dietary interventions were started at the age of 22-24 months and continued over lifetime. […] P-values were calculated using Mantel-Cox test. The p-values that are shown next to the intervention naming refer to the comparison of the intervention to the AL-diet group.
To test effects of these dietary intervention on organism lifespan, 4 cohorts of 22-24 months old female mice (n=14-15 mice per group) were exposed to long-term treatments (until the end of life or the occurrence of humane endpoints).

HSCs (CD150+CD34−LSK) = assay: Competitive transplantation of HSCs from dietary cohorts, repopulation capacity (peripheral blood chimerism); assay type: in vivo; settings: HSCs from young mice; 2 weeks intervention; FIG. 14A
CMPs [3] = assay: Respirometry (OCR) of freshly isolated CMPs from mice fed NR, DR or NR/DR; assay type: in vivo; settings: 2 weeks
Description: (§2) FIG. 13 (A-J) Young (2-3 month old) and old (22-24 month old) mice were exposed for 2 weeks to the indicated diet: ad libitum diet (AL), dietary restriction (DR=CRD), NAD-precursor supplementation (=NR), NR/DR—combination of NR plus DR.
(A-C) Respirometry analysis of the OCR of freshly-isolated CMPs in: (A) young and (B) old mice; (C) Quantification of OCR at basal level of the indicated groups as measured in (A,B, before oligomycin-application, marked by 0). N=4-6 mice per group. The Data were normally distributed (Shapiro-Wilk test) after log transformation. Error bars represent SD. P-values were calculated on average data of 4 time points using 2-way ANOVA with Tukey's multiple comparisons test on log-transformed data.
To experimentally test whether mitochondrial enhancement could re-empower DR (=CRD) in old mice, young and old mice were exposed to NAD+ supplementation by feeding of nicotinamide riboside (NR). In addition, the mice were exposed for 2 weeks to DR (=CRD), starting 1 week after NR pre-feeding, or continuous AL feeding.

[4] = system: stress response genes in HSCs; assay: NanoString mRNA analysis of stress response genes in freshly isolated HSCs from dietary cohorts; assay type: in vivo, mice; settings: 2 weeks, listed as NR-alone
Description: as §2
(G-K) NanoString mRNA analysis of stress response genes in freshly-isolated HSCs from young (Y) and old (O) mice that were exposed to ad libitum (AL) or dietary restriction (DR diet for 2 weeks) of NAD-precursor treatment (NR) or a combination of NR plus DR (=NR/DR). The dotted lines represent the q-value of 0.05.
To analyze whether the NR/DR-mediated re-installment of mitochondrial metabolic plasticity in HSCs from old mice could rescue the induction of metabolic stress signals, freshly isolated HSCs from 2-week dietary cohorts were analyzed with the same NanoString assay as described above.
Measuring of RNA expression by NanoString was done according to our previous publication (Chen et al., 2019) and according to manufacturer protocol (NanoString technologies). In brief, 1×10^4 cells were lysed in 2 μL of lysis/binding solution (Applied Biosystems, 8500G14). […]

[5] = system: stress response genes in MPPs (CD34+Flt3−LSK); assay: NanoString analysis of stress response genes in MPPs pre-treated in vitro with NR followed by 3I or vehicle; assay type: cell-based, mice
Protocol: (C,D) NanoString analysis on the expression of stress response genes was carried out on 10,000 MPPs (CD34^+Flt3^−LSK) from young (3-4 months, n=4) and old mice (22-24 months, n=4). MPPs were pre-treated in culture with 1 mM NR or DMSO (Con) for 12h followed by treatment with 31 or Vehicle (Veh: 0.4% DMSO) for 12h under continuation of NR or Veh treatment. (C,D) Volcano plots for the NanoString analysis.
(G,H) NanoString analysis on the expression of stress response genes was carried out on 10,000 MPPs (CD34^+Flt3^−LSK) from young (3-4 months, n=4) and old mice (22-24 months, n=4). MPPs were pre-treated in vitro with 1 mM NR or DMSO (Con) for 12h followed by treatment with 31 or Vehicle (Veh: 0.4% DMSO) for 12h. The NR treatment was continued for the time window of 12-24h. (G, H) Volcano plots on the NanoString analysis of stress response genes.
as §1
Measuring of RNA expression by NanoString was done according to our previous publication (Chen et al., 2019) and according to manufacturer protocol (NanoString technologies). In brief, 1×10^4 cells were lysed in 2 μL of lysis/binding solution (Applied Biosystems, 8500G14). The cell lysate was then used for hybridization reaction as following: 2 μL of cell lysate was mixed with 5 μL of nCounter hybridization buffer (NanoString), 2 μL of Core Tagset, 2 μL of extension Tagset, 0.5 μL of […] Probe A working pool, 0.5 μL of […] probe A extension Pool, 0.5 μL of 3 nm Probe B working pool, and 0.5 μL of 3 nM Probe B extension pool (from IDT technologies). 2 μL of Nuclease-free water was added to each reaction to reach a final volume of 15 μL. The reaction mixture was prepared in Strip tubes (from NanoString technologies). Then it was incubated at 67° C. using thermal cycler (Masterycler from Eppendorf) for 16 h. Afterward, the Nanostring chemistry was processed automatically using nCounter prep-station 5s (NanoString technologies) according to manufacturer protocol. Directly after the run, the nCounter Cartridge was loaded into nCounter digital analyzer 5s (NanoString technologies). For NanoString analysis on young and old mice exposed to DR or AL food, freshly FACS-Sorted MPPs (CD34^+Flt3^− LSK) were used. […] Cells from NR treatment and DMSO were divided into 2 halves and further treated with 3I (6 μM each) or DMSO as control. The cells were harvested for NanoString analysis as described above. Data analysis was done after background correction using nSolver advanced analysis software (v.4) and (R software v 3.3.2.). The following housekeeping genes were used for normalization: ActB, B2M, Gapdh, Gusb, Hprt, PGK1, Polr1b, Polr2a, Ppia, Rpl19, Sdha, and Tbp. Heatmaps and volcano plots was done using GraphPad prism software version 8.

CMPs [6] = assay: OCR of CMPs in glucose-restricted medium from old mice fed CRMs with or without NAD-precursor; assay type: in vivo; settings: old mice (22-24 months), 2 weeks, glucose depletion, FIG. 15
Protocol: FIG. 15—Old (22-24 months old) mice were exposed for 2 weeks to the indicated diet: ad libitum (AL), Metformin (met), NAD-precursor (NR), NRM—combination of NR plus Metformin. Curves show respirometry analysis of the OCR of freshly isolated CMPs. The OCRs were continuously measured for 12h in freshly isolated CMPs grown in glucose-restricted medium (1 mM=R).
To test whether NAD precursor supplementation would cooperate with specific CRMs that mimic a certain sub-pathway induced by CRD, different classes of CRMs were employed. We tested the combined effects of NAD supplementation with • (a) Metformin—a CRM, which induces mitochondrial stress • (b) Pterostilbene—a CRM which induces Sirtuin-dependent stress responses including autophagy • (c) Spermidine—a CRM, which induces autophagy (ad ownstream target of sirtuins (see above)
Old mice (22-24 months) were fed with CRMs (a-c) with or without combination with NAD-precursor supplementation for 2 weeks before analysis. Freshly isolated hematopoietic cells (CMPs) were tested for a rescue in responsiveness to activate mitochondria in response to glucose depletion—a marker of metabolic improvement induced by CRD in young mice or by a combination of NAD precursor supplementation plus CRD in old mice. […]

female Drosophila = settings: 400 μM, high-fat diet; cited from earlier work
[7] = Y.Con + 3I versus O.NR + 3I, MPPs, 12 h pre-treatment with NR

NC(=O)c1ccc[n+]([C@@H]2O[C@H](CO)[C@@H](O)[C@H]2O)c1 [NR, Nicotinamide riboside]
response to 3I-treatment: oxidative metabolism (CMPs [1]; NR-treated (1 mM) cells from old mice, 3I 6 uM each): reduction of oxidative metabolism | oxidative metabolism (basal oxygen consumption rate) (CMPs [1]; cells from old mice, 1 mM NR): rescued oxidative metabolism to a similar level as observed in HSCs from young mice | response to 3I-treatment: cell proliferation (HSCs): suppression of cell proliferation | increase in lifespan when applied to old mice (old mice): 6.9% | increase in median life expectancy compared to AL ([2]; late-life treatment of old mice, this study): 10% | lifespan compared to AL-fed control mice ([2]; treatment started at 22-24 months, continued over lifetime, FIG. 14B): slight increases in lifespan | repopulation capacity of HSCs (HSCs (CD150+CD34−LSK)): increased the repopulation capacity | mitochondrial respiration compared to AL-fed mice (CMPs [3]; old mice, FIG. 13B,C): neither of the single treatments was sufficient to induce mitochondrial respiration | mitochondrial respiration compared to AL-fed mice (CMPs [3]; young mice, FIG. 13A,C): significant increases in mitochondrial respiration | induction of metabolic stress signals (stress response genes) ([4]; HSCs from young mice, FIG. 13G): induction of health-promoting stress response genes in young mice; also recorded: induced metabolic stress signals | induction of metabolic stress signaling (stress response genes) ([4]; HSCs of old mice, FIG. 13I,K): neither of the single treatments, NR-alone (FIG. 13I) or DR-alone (FIG. 13J) was able to induce metabolic stress signaling | IDH1-mRNA LogZFC [5, 7]: −2.62 | Ino1-mRNA LogZFC [5, 7]: −1.78 | Myh9-mRNA LogZFC [5, 7]: −2.45 | NRas-mRNA LogZFC [5, 7]: −2.16 | Pds5A-mRNA LogZFC [5, 7]: −3.08 | atp5a1-mRNA LogZFC [5, 7]: 1.11 | unspliced XBP1-mRNA LogZFC [5, 7]: 2.56 | changes in the transcription of stress response genes in old vs. young cells ([5]; cells exposed to 3I-treatment, 1 mM NR, FIG. 12H): reverted changes in the transcription of stress response genes | pre-existing, age-related changes in transcription of stress response genes ([5]; old vs. young cells not exposed to 3I-treatment, 1 mM NR, FIG. 11C-E): no significant effects

CN(C)C(=N)N=C(N)N [metformin, Metformin-Hydrochlorid, reference compound]
synergistic effects of NAD precursor supplementation combined with the CRM on inducing mitochondria activity (OCR) (CMPs [6]): synergistic effects on inducing mitochondria activity

Oc1ccc(C=Cc2cc(O)cc(O)c2)cc1 [resveratrol, Resveratrol]
extension of the lifespan (female Drosophila): 10%-15%
